Measured values as given in ChEMBL document CHEMBL6153037, “Developing dual-responsive quinolinium prodrugs of 8-hydroxyquinoline by harnessing the dual chelating sites” (Eur J Med Chem, 2025).
The source made the active and inactive calls. No cut-off for these calls is given here.

Columns and labels:
MDA-MB-231 [1] = assay: Cytotoxicity against human MDA-MB-231 cells assessed as decrease in cell viability at 5 uM incubated for 48 hrs by MTT assay relative to control; format: functional
MDA-MB-231 [2] = assay: Cytotoxicity against human MDA-MB-231 cells incubated for 12 hrs by MTT assay; format: functional, cell-based; conditions: MDA-MB-231, 12 h
MDA-MB-231 [3] = assay: Induction of apoptosis in human MDA-MB-231 cells assessed as early apoptotic cells at 0.8 uM incubated for 24 hrs by Annexin V-FITC/PI staining based flow cytometry (reference value: 7.39 %); format: functional
[4] = Induction of apoptosis in human MCF-10A cells assessed as viable cells at 0.8 uM incubated for 24 hrs by Annexin V-FITC/PI staining based flow cytometry (reference value: 92.5 %); format: toxicity, cell-based; conditions: read-out: Activity
MDA-MB-231 [5] = assay: Induction of apoptosis in human MDA-MB-231 cells assessed as late apoptotic cells incubated for 24 hrs by Annexin V-FITC/PI staining based flow cytometry (reference value: 2.4 %); format: functional
MDA-MB-231 [6] = assay: Induction of apoptosis in human MDA-MB-231 cells assessed as necrotic cells incubated for 24 hrs by Annexin V-FITC/PI staining based flow cytometry (reference value: 3.6 %); format: functional
MDA-MB-231 [7] = assay: Antitumor activity against human MDA-MB-231 cells assessed as sphere-forming efficiency incubated for 6 hrs followed by medium replacement without compound measured after 6 days by microscopic analysis (reference value: 1.07 %); format: functional
MDA-MB-231 [8] = assay: Induction of apoptosis in human MDA-MB-231 cells assessed as viable cells at 0.8 uM incubated for 24 hrs by Annexin V-FITC/PI staining based flow cytometry (reference value: 86.2 %); format: functional; conditions: read-out: Activity
MDA-MB-231 [9] = assay: Induction of apoptosis in human MDA-MB-231 cells assessed as necrotic cells at 0.8 uM incubated for 24 hrs by Annexin V-FITC/PI staining based flow cytometry (reference value: 0.59 %); format: functional
MDA-MB-231 [10] = assay: Induction of cell cycle arrest in human MDA-MB-231 cells assessed as accumulation at G0/G1 phase at 0.8 uM by PI staining based flow cytometry (reference value: 64.6 %); format: functional
MCF-10A [11] = assay: Induction of apoptosis in human MCF-10A cells assessed as early apoptotic cells at 0.8 uM incubated for 24 hrs by Annexin V-FITC/PI staining based flow cytometry (reference value: 2.96 %); format: toxicity, cell-based
MDA-MB-231 [12] = assay: Anti-migration activity in human MDA-MB-231 cells at 0.8 uM incubated for 48 hrs by wound healing assay (reference value: 65.2 %); format: functional
MCF-10A [13] = assay: Induction of apoptosis in human MCF-10A cells assessed as late apoptotic cells at 0.8 uM incubated for 24 hrs by Annexin V-FITC/PI staining based flow cytometry (reference value: 3.13 %); format: toxicity, cell-based
MDA-MB-231 [14] = assay: Inhibition of mitochondrial membrane potential in human MDA-MB-231 cells assessed as increase in green fluorescence at 0.8 uM incubated for 24 hrs by JC-1 dye based analysis; format: functional, cell-based
MDA-MB-231 [15] = assay: Anti-migration activity in human MDA-MB-231 cells at 0.8 uM incubated for 24 hrs by wound healing assay (reference value: 45.4 %); format: functional
MDA-MB-231 [16] = assay: Induction of apoptosis in human MDA-MB-231 cells assessed as late apoptotic cells at 0.8 uM incubated for 24 hrs by Annexin V-FITC/PI staining based flow cytometry (reference value: 5.81 %); format: functional
MCF-10A [17] = assay: Inhibition of mitochondrial membrane potential in human MCF-10A cells assessed as increase in green fluorescence at 0.8 uM incubated for 24 hrs by JC-1 dye based analysis; format: toxicity, cell-based
MDA-MB-231 [18] = assay: Induction of cell cycle arrest in human MDA-MB-231 cells assessed as accumulation at G0/G1 phase in presence of UV by PI staining based flow cytometry (reference value: 43.25 %); format: functional
MDA-MB-231 [19] = assay: Inhibition of mitochondrial membrane potential in human MDA-MB-231 cells incubated for 24 hrs in presence of UV by JC-1 dye based analysis (reference value: 5.51 %); format: functional
[20] = Toxicity in BALB/c nude mouse xenografted with human MDA-MB-231 cells assessed as body weight change at 20 mg/kg, iv administered every two days for 21 days; format: organism-based; conditions: in vivo, 504 h, time 21 day
MDA-MB-231 [21] = assay: Induction of apoptosis in human MDA-MB-231 cells assessed as early apoptotic cells incubated for 24 hrs by Annexin V-FITC/PI staining based flow cytometry (reference value: 1.94 %); format: functional
MCF-10A [22] = assay: Induction of apoptosis in human MCF-10A cells assessed as necrotic cells at 0.8 uM incubated for 24 hrs by Annexin V-FITC/PI staining based flow cytometry (reference value: 1.38 %); format: toxicity, cell-based
MDA-MB-231 [23] = assay: Induction of apoptosis in human MDA-MB-231 cells assessed as viable cells incubated for 24 hrs by Annexin V-FITC/PI staining based flow cytometry (reference value: 92.06 %); format: functional

`Br.[N-]=[N+]=Nc1ccc(C[n+]2cccc3cccc(O)c32)cc1` gave an Activity (MDA-MB-231 [1]) of under 25%.
In the case of `O=C(CCc1ccc(O)cc1)c1c(O)cc(O)cc1O[C@@H]1O[C@H](CO)[C@@H](O)[C@H](O)[C@H]1O` [PHLORIZIN], the IC50 (MDA-MB-231 [2]) is reported as 26.2 µM.
Compound `Oc1cccc2cccnc12` [OXYQUINOLINE] has an Activity (MDA-MB-231 [3]) of 80.5%, a viability at 24 h, 0.8 µM [4] of 8.98% and an Activity (MDA-MB-231 [5]) of 20.48%. It also gave an Activity (MDA-MB-231 [6]) of 2.66%, an Activity (MDA-MB-231 [7]) of 0.19% and a viability at 0.8 µM (MDA-MB-231 [8]) of 3.03%. It also gave an Activity (MDA-MB-231 [9]) of 0.88%, an Activity (MDA-MB-231 [10]) of 78.2% and an Activity (MCF-10A [11]) of 63.2%. For the same compound, the Activity (MDA-MB-231 [12]) was 5.6%, the Activity (MCF-10A [13]) was 24.4% and the inhibition (MDA-MB-231 [14]) was “Active”. The Activity (MDA-MB-231 [15]) was 3.8%, the Activity (MDA-MB-231 [16]) was 15.6% and the Activity (MCF-10A [17]) was “Toxic”. For the same compound, the Activity (MDA-MB-231 [18]) was 61.23%, the “inhibition (INH)” value (MDA-MB-231 [19]) was 46.91% and the Activity [20] was “Non-toxic”. For the same compound, the Activity (MDA-MB-231 [21]) was 33.76%, the Activity (MCF-10A [22]) was 3.39% and the Activity (MDA-MB-231 [23]) was 44.1%.
